# Tests used:
# bacterial blight in rice = assay: whole plant or invertebrate; conditions: Oryza sativa, read-out: efficacy against bacterial blight in rice
# [1] = tested on: pathogenic bacteria causing bacterial wilt in cassava; assay: organism not typed; assay type: cell-based; conditions: read-out: inhibitory rate
# [2] = tested on: pathogenic bacteria causing bacterial blight in rice; assay: whole plant or invertebrate; assay type: cell-based, xanthomonas; conditions: read-out: inhibitory rate
# cucumber seedlings = assay: Safety for plant growth after application; assay type: in vivo; conditions: dosage 200 ppm
# Procedure, shortened: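 Using pot-grown cucumber seedlings indoors, we recorded plant height growth rate together with chlorophyll content and leaf area following compound application.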
# [3] = tested on: bacterial wilt in tobacco; assay: whole plant or invertebrate; conditions: Nicotiana tabacum, read-out: efficacy against bacterial wilt in tobacco
# [4] = tested on: pathogenic bacteria causing bacterial wilt in tobacco; assay: whole plant or invertebrate; assay type: cell-based, ralstonia; conditions: read-out: inhibitory rate
# [5] = tested on: soft rot in Chinese cabbages; assay: whole plant or invertebrate; conditions: 48 h, read-out: efficacy against soft rot in Chinese cabbages
# [6] = tested on: fruit blotch in watermelons; assay: whole plant or invertebrate; conditions: read-out: efficacy against fruit blotch in watermelons
# [7] = tested on: pathogenic bacteria causing stem rot in sweet potatoes; assay: In vitro bactericidal activity, stem rot in sweet potatoes; assay type: cell-based, dikia; conditions: read-out: inhibitory rate; for inhibition at 1 ppm: dosage 1 ppm; for inhibition at 5 ppm: dosage 5 ppm
# [8] = tested on: pathogenic bacteria causing black shank in potatoes; assay: In vitro bactericidal activity, black shank in potatoes; assay type: cell-based; conditions: read-out: inhibitory rate; for inhibition at 1 ppm: dosage 1 ppm; for inhibition at 5 ppm: dosage 5 ppm
# [9] = tested on: indoor potted cucumber seedlings; assay: Effect of improving growth and development of crops; assay type: in vivo; set-up: Rate of growth rate increase (%): concentration or dose not given beside the values; conditions: versus blank control; for Rate of chlorophyll content increase (%) / Rate of leaf area increase (%): 14 days after application; for Rate of growth rate increase (%): plant height 14 days after application; for Rate of leaf area increase (%): second leaf
# Experimental: Taking indoor potted cucumber seedlings as an example, the influence of the compound disclosed herein on growth rate of plant height, chlorophyll content, leaf area, etc. of crops was mainly evaluated.
# The plant heights of plants before application and 14 days after the application were measured.
# The growth rates were calculated according to formula (1)
# The rates of the growth rate increase (%) were calculated according to formula (2)
# The longitudinal and transverse diameters (i.e., leaf length and leaf width, respectively, wherein the leaf length is the distance from the base to the tip of a leaf, and leaf width is the measured value of the upper shoulder width of the leaf) of the second leaf of plants before application and 14 days after the application were measured.
# The leaf areas were calculated according to formula (3)
# The leaf area increases were calculated according to formula (4)
# The rates of the leaf area increases were calculated according to formula (5)
# The chlorophyll contents of leaves were measured by using a chlorophyll measuring instrument (model: SPAD-520 Plus).
# The chlorophyll content increases were calculated according to formula (6)
# The rates of the chlorophyll content increases were calculated according to formula (7)
# [10] = tested on: pathogenic bacteria causing fruit blotch in watermelons; assay: In vitro bactericidal activity, fruit blotch in watermelons; assay type: cell-based, acidovorax; conditions: read-out: inhibitory rate; for inhibition at 1 ppm: dosage 1 ppm; for inhibition at 5 ppm: dosage 5 ppm
# [11] = tested on: pathogenic bacteria causing black rot in Chinese cabbages; assay: In vitro bactericidal activity, black rot in Chinese cabbages; assay type: cell-based, xanthomonas; conditions: Xanthomonas, read-out: inhibitory rate; for inhibition at 1 ppm: dosage 1 ppm; for inhibition at 5 ppm: dosage 5 ppm
# [12] = tested on: stem rot in sweet potatoes; assay: whole plant or invertebrate; conditions: read-out: efficacy against stem rot in sweet potatoes
# black shank in potatoes = assay: Living crops in vivo protective activity, potatoes (root irrigation); conditions: Solanum tuberosum, read-out: efficacy against black shank in potatoes; for pest or weed control at 5 ppm: dosage 5 ppm; for pest or weed control at 10 ppm: dosage 10 ppm
# Experimental: Root irrigation was carried out on the potatoes for tests according to the designed concentration of the agents. The dosage for each plant was 200 mL and was kept consistent (also for the control). The black shank bacteria were inoculated on the second day after the application. The results were investigated according to the disease condition.
# [13] = tested on: pathogenic bacteria causing bacterial angular leaf spot in cucumbers; assay: In vitro bactericidal activity, bacterial angular leaf spot in cucumbers; assay type: cell-based, pseudomonas; conditions: read-out: inhibitory rate; for inhibition at 1 ppm: dosage 1 ppm; for inhibition at 5 ppm: dosage 5 ppm
# [14] = tested on: pathogenic bacteria causing fire blight in pears; assay: In vitro bactericidal activity, fire blight in pears; assay type: cell-based, erwinia; conditions: Erwinia, read-out: inhibitory rate; for inhibition at 1 ppm: dosage 1 ppm; for inhibition at 5 ppm: dosage 5 ppm
Compound,pest or weed control at 5 ppm (bacterial blight in rice) [%],pest or weed control at 10 ppm (bacterial blight in rice) [%],inhibition at 1 ppm [1] [%],inhibition at 5 ppm [1] [%],inhibition at 1 ppm [2] [%],inhibition at 5 ppm [2] [%],"safety for plant growth (discoloration, necrosis, wilt, malformation) (cucumber seedlings)",pest or weed control at 5 ppm [3] [%],pest or weed control at 10 ppm [3] [%],inhibition at 1 ppm [4] [%],inhibition at 5 ppm [4] [%],pest or weed control at 5 ppm [5] [%],pest or weed control at 10 ppm [5] [%],pest or weed control at 5 ppm [6] [%],pest or weed control at 10 ppm [6] [%],inhibition at 1 ppm [7] [%],inhibition at 5 ppm [7] [%],inhibition at 1 ppm [8] [%],inhibition at 5 ppm [8] [%],Rate of chlorophyll content increase (%) [9] [%],also measured
COCOC(=O)c1cn(C2CC2)c2cc(Cl)c(F)cc2c1=O [Compound 143],≥ 80,≥ 90,≥ 80,≥ 90,≥ 80,≥ 90,safe for plant growth,≥ 90,≥ 90,≥ 80,≥ 90,≥ 80,≥ 90,≥ 90,≥ 90,≥ 80,≥ 90,≥ 80,≥ 90,11,Rate of growth rate increase (%) [9]: 8%; Rate of leaf area increase (%) [9]: 15%; inhibition at 1 ppm [10]: ≥ 80%; inhibition at 5 ppm [10]: ≥ 90%; inhibition at 1 ppm [11]: ≥ 80%; inhibition at 5 ppm [11]: ≥ 90%; pest or weed control at 5 ppm [12]: ≥ 90%; pest or weed control at 10 ppm [12]: ≥ 90%; pest or weed control at 5 ppm (black shank in potatoes): ≥ 80%; pest or weed control at 10 ppm (black shank in potatoes): ≥ 90%; inhibition at 1 ppm [13]: ≥ 80%; inhibition at 5 ppm [13]: ≥ 90%; inhibition at 1 ppm [14]: ≥ 80%; inhibition at 5 ppm [14]: ≥ 90%
CC(C)(C)Oc1cc2c(cc1F)c(=O)c(C(=O)OCCO)cn2C1CC1 [Compound 270],≥ 90,≥ 90,≥ 90,≥ 90,≥ 90,≥ 90,safe for plant growth,≥ 90,≥ 90,≥ 90,≥ 90,≥ 90,≥ 90,≥ 90,≥ 90,≥ 90,≥ 90,≥ 90,≥ 90,10,Rate of growth rate increase (%) [9]: 9%; Rate of leaf area increase (%) [9]: 12%; inhibition at 1 ppm [10]: ≥ 90%; inhibition at 5 ppm [10]: ≥ 90%; inhibition at 1 ppm [11]: ≥ 90%; inhibition at 5 ppm [11]: ≥ 90%; pest or weed control at 5 ppm [12]: ≥ 90%; pest or weed control at 10 ppm [12]: ≥ 90%; pest or weed control at 5 ppm (black shank in potatoes): ≥ 80%; pest or weed control at 10 ppm (black shank in potatoes): ≥ 90%; inhibition at 1 ppm [13]: ≥ 90%; inhibition at 5 ppm [13]: ≥ 90%; inhibition at 1 ppm [14]: ≥ 90%; inhibition at 5 ppm [14]: ≥ 90%

# — patent US20250313533A1, “QUINOLINE CARBOXYLIC ACID ESTER COMPOUND AND PREPARATION METHOD AND USE THEREOF” (priority 2019, published 2025)
